Test results: ChEMBL document CHEMBL4411344, “Synthesis and biological evaluation of new long-chain squaramides as anti-chagasic agents in the BALB/c mouse model” (Bioorg Med Chem, 2019)
The source made the active and inactive calls. The calls are words filed in the database; no cut-off is given here.

Tests used:
[1] = Hepatotoxicity in Balb/c mouse infected with Trypanosoma cruzi MHOM/Pe/2011/Arequipa DTU 5 trypomastigotes assessed as increase in alkaline phosphatase level at 20 mg/kg, po once daily for 5 consecutive days starting from day 10 post infection measured on day 16 post infection relative to control; assay type: toxicity, organism-based; settings: in vivo
[2] = (§1) Cardiotoxicity in Balb/c mouse infected with Trypanosoma cruzi MHOM/Pe/2011/Arequipa DTU 5 trypomastigotes assessed as decrease in serum LDH level at 20 mg/kg, po once daily for 5 consecutive days starting from day 75 post infection measured on day 81 post infection relative to control; assay type: toxicity, organism-based; settings: in vivo
[3] = (§2) Hepatotoxicity in Balb/c mouse infected with Trypanosoma cruzi MHOM/Pe/2011/Arequipa DTU 5 trypomastigotes assessed as increase in total bilirubin level at 20 mg/kg, po once daily for 5 consecutive days starting from day 10 post infection measured on day 127 post infection by biochemical analysis relative to control; assay type: toxicity, organism-based; settings: in vivo
[4] = Hepatotoxicity in Balb/c mouse infected with Trypanosoma cruzi MHOM/Pe/2011/Arequipa DTU 5 trypomastigotes assessed as increase in serum ALT to GPT level at 20 mg/kg, po once daily for 5 consecutive days starting from day 10 post infection measured on day 16 post infection relative to control; assay type: toxicity, organism-based; settings: in vivo
[5] = Cardiotoxicity in Balb/c mouse infected with Trypanosoma cruzi MHOM/Pe/2011/Arequipa DTU 5 trypomastigotes assessed as decrease in serum LDH level at 20 mg/kg, po once daily for 5 consecutive days starting from day 75 post infection measured on day 127 post infection relative to control; assay type: toxicity, organism-based; settings: in vivo
[6] = Hepatotoxicity in Balb/c mouse infected with Trypanosoma cruzi MHOM/Pe/2011/Arequipa DTU 5 trypomastigotes assessed as increase in alkaline phosphatase level at 20 mg/kg, po once daily for 5 consecutive days starting from day 75 post infection measured on day 127 post infection relative to control; assay type: toxicity, organism-based; settings: in vivo
[7] = as §1, with “ratio of creatine kinase in muscle to brain” for “serum LDH level”; assay type: toxicity, organism-based; settings: in vivo
[8] = Nephrotoxicity in Balb/c mouse infected with Trypanosoma cruzi MHOM/Pe/2011/Arequipa DTU 5 trypomastigotes assessed as decrease in serum uric acid level at 20 mg/kg, po once daily for 5 consecutive days starting from day 75 post infection measured on day 127 post infection relative to control; assay type: toxicity, organism-based; settings: in vivo
[9] = Hepatotoxicity in Balb/c mouse infected with Trypanosoma cruzi MHOM/Pe/2011/Arequipa DTU 5 trypomastigotes assessed as increase in total bilirubin level at 20 mg/kg, po once daily for 5 consecutive days starting from day 75 post infection measured on day 127 post infection relative to control; assay type: toxicity, organism-based; settings: in vivo
[10] = Selectivity index, ratio of IC50 for African green monkey Vero cells to IC50 for Trypanosoma cruzi MHOM/Pe/2011/Arequipa DTU 5 epimastigotes; assay type: toxicity; settings: read-out: Ratio IC50
Trypanosoma cruzi [11] = experiment: Antitrypanosomal activity against Trypanosoma cruzi MHOM/Pe/2011/Arequipa DTU 5 epimastigotes assessed as effect on parasite glycolytic pathway by measuring decrease in L-alanine excretion at IC25 after 72 hrs by 1H NMR method; assay type: functional, organism-based
[12] = Selectivity index, ratio of IC50 for African green monkey Vero cells to IC50 for Trypanosoma cruzi TINF/CH/1956/Tulahuen DTU 6 trypomastigotes derived from infected Balb/c mouse; assay type: toxicity; settings: read-out: Ratio IC50
[13] = Selectivity index, ratio of IC50 for African green monkey Vero cells to IC50 for Trypanosoma cruzi MHOM/Pe/2011/Arequipa DTU 5 amastigotes infected in African green monkey Vero cells; assay type: toxicity; settings: read-out: Ratio IC50
Trypanosoma cruzi [14] = experiment: Trypanocidal activity against Trypanosoma cruzi TINF/CH/1956/Tulahuen DTU 6 amastigotes infected in African green monkey Vero cells after 72 hrs by Giemsa-staining based microscopic assay; assay type: functional, organism-based; settings: TINF/CH/1956/Tulahuen DTU 6, Vero
[15] = biological target: Superoxide dismutase [Cu-Zn] (Homo sapiens, UniProt P00441); experiment: Inhibition of human erythrocyte CuZn-SOD by UV-Visible spectrophotometric method
Trypanosoma cruzi [16] = experiment: Trypanocidal activity against Trypanosoma cruzi MHOM/Pe/2011/Arequipa DTU 5 amastigotes infected in African green monkey Vero cells assessed as reduction in infected cells after 72 hrs by Giemsa-staining based assay; assay type: functional, organism-based; settings: MHOM/Pe/2011/Arequipa DTU 5, Vero
[17] = Selectivity index, ratio of IC50 for African green monkey Vero cells to IC50 for Trypanosoma cruzi IRHOD/CO/2008/SN3 DTU 1 amastigotes infected in African green monkey Vero cells; assay type: toxicity; settings: read-out: Ratio IC50
[18] = Selectivity index, ratio of IC50 for African green monkey Vero cells to IC50 for Trypanosoma cruzi IRHOD/CO/2008/SN3 DTU 1 trypomastigotes derived from infected Balb/c mouse; assay type: toxicity; settings: read-out: Ratio IC50
Trypanosoma cruzi [19] = experiment: Antitrypanosomal activity against Trypanosoma cruzi MHOM/Pe/2011/Arequipa DTU 5 epimastigotes assessed as effect on parasite glycolytic pathway by measuring decrease in D-lactate excretion at IC25 after 72 hrs by 1H NMR method; assay type: functional, organism-based
Trypanosoma cruzi [20] = experiment: Antitrypanosomal activity against Trypanosoma cruzi MHOM/Pe/2011/Arequipa DTU 5 epimastigotes assessed as effect on parasite glycolytic pathway by measuring increase in glycerol excretion at IC25 after 72 hrs by 1H NMR method; assay type: functional
[21] = Inhibition of Trypanosoma cruzi MHOM/Pe/2011/Arequipa DTU 5 epimastigotes Fe-SOD by UV-Visible spectrophotometric method
Trypanosoma cruzi [22] = experiment: Antitrypanosomal activity against Trypanosoma cruzi MHOM/Pe/2011/Arequipa DTU 5 epimastigotes assessed as effect on parasite glycolytic pathway by measuring decrease in pyruvate excretion at IC25 after 72 hrs by 1H NMR method; assay type: functional; design: scale not given: the % may be the effect or the level left
Trypanosoma cruzi [23] = experiment: Trypanocidal activity against Trypanosoma cruzi IRHOD/CO/2008/SN3 DTU 1 amastigotes infected in African green monkey Vero cells after 72 hrs by Giemsa-staining based microscopic assay; assay type: functional, organism-based; settings: IRHOD/CO/2008/SN3 DTU 1, Vero
[24] = Selectivity index, ratio of IC50 for African green monkey Vero cells to IC50 for Trypanosoma cruzi MHOM/Pe/2011/Arequipa DTU 5 trypomastigotes derived from infected Balb/c mouse; assay type: toxicity; settings: read-out: Ratio IC50
Trypanosoma cruzi [25] = experiment: Antitrypanosomal activity against Trypanosoma cruzi MHOM/Pe/2011/Arequipa DTU 5 epimastigotes assessed as effect on parasite glycolytic pathway by measuring increase in succinate excretion at IC25 after 72 hrs by 1H NMR method; assay type: functional, organism-based
Trypanosoma cruzi [26] = experiment: Trypanocidal activity against Trypanosoma cruzi IRHOD/CO/2008/SN3 DTU 1 trypomastigotes derived from infected Balb/c mouse after 72 hrs by resazurin dye based assay; assay type: functional, organism-based; settings: IRHOD/CO/2008/SN3 DTU 1, 72 h
Trypanosoma cruzi [27] = experiment: Antitrypanosomal activity against Trypanosoma cruzi MHOM/Pe/2011/Arequipa DTU 5 epimastigotes assessed as effect on parasite glycolytic pathway by measuring increase in L-alanine excretion at IC25 after 72 hrs by 1H NMR method; assay type: functional, organism-based
Trypanosoma cruzi [28] = experiment: Trypanocidal activity against Trypanosoma cruzi MHOM/Pe/2011/Arequipa DTU 5 amastigotes infected in African green monkey Vero cells assessed as infected cells at 50 uM after 72 hrs by Giemsa-staining based assay; assay type: functional
[29] = as §2, with “change” for “increase”, “ratio of serum AST to GOT” for “total bilirubin”, “(reference value: 179 U/L)” for “relative to control”; assay type: toxicity, organism-based; settings: in vivo

Sequence of Superoxide dismutase [Cu-Zn] (P00441 whole entry): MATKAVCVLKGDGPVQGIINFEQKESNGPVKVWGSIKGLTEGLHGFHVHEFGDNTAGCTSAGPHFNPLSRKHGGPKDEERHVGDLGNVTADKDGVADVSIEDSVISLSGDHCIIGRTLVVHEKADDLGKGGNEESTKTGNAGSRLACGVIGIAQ

Row | SMILES | Activity [1] [U/L] | Activity [8] [mg/dL] | Activity [9] [%] | selectivity ratio [10] | selectivity ratio [12] | selectivity ratio [13] | IC50 (Trypanosoma cruzi [14]) [µM] | IC50 [15] [µM] | IC50 (Trypanosoma cruzi [16]) [µM] | selectivity ratio [17] | selectivity ratio [18] | Activity (Trypanosoma cruzi [20]) | IC50 [21] [µM] | IC50 (Trypanosoma cruzi [23]) [µM] | selectivity ratio [24] | Activity (Trypanosoma cruzi [25]) | IC50 (Trypanosoma cruzi [26]) [µM] | further results
1 | O=C(Cn1ccnc1[N+](=O)[O-])NCc1ccccc1 [BENZNIDAZOLE] | 20 to 30 | 10 to 20 | 20 |  |  |  |  |  |  |  |  |  |  |  |  |  |  | Activity [2]: 20 to 30 U/L; Activity [3]: 10%; Activity [4]: > 40 U/L; Activity [5]: 10 to 20 U/L; Activity [6]: 20 to 30 U/L; Activity [7]: 10 to 20 U/L
2 | CCCCCCNc1c(N(C)CCCN(C)C)c(=O)c1=O | 10 to 20 | 10 to 20 |  | 44.3 | 52.2 | 52.1 | 38.3 | > 100 | 60.5 | 18 | 57 | Active | 25.3 | 50 | 139 | Active | 15.8 | Activity (Trypanosoma cruzi [11]): Active; Activity (Trypanosoma cruzi [19]): Active; Activity (Trypanosoma cruzi [22]): 30%
3 | CCCCCCCCCCCCCCCCNc1c(N(C)CCCN(C)C)c(=O)c1=O |  |  | 10 | 93.1 | 144 | 3090 | 6.4 | > 100 | 5.6 | 35.9 | 126 | 43% | 69.8 | 18.9 | 154 | Active | 5.4 | Activity (Trypanosoma cruzi [27]): Active; Activity (Trypanosoma cruzi [28]): 0; Activity [29]: 179 U/L
